Data on 32 compounds can be found in patent publication US11591336B2 (Relay Therapeutics, Inc., priority 2017, dated 2023).

Counter-ions that a name gives are not always drawn. Some results are limits rather than exact numbers.

The target in the experiment is SHP2 (Homo sapiens (Human), UniProt Q06124). The experiment in a line: SHP2 Allosteric Inhibition Assay (DiFMUP prompt fluorescence). It is filed as biochemical. The following applies: 0.25 nM SHP2 activated with 0.5 μM peptide IRS1_pY1172(dPEG8)pY1222; substrate DiFMUP 100 μM; 25° C.
Sequence of SHP2 (Q06124 whole entry): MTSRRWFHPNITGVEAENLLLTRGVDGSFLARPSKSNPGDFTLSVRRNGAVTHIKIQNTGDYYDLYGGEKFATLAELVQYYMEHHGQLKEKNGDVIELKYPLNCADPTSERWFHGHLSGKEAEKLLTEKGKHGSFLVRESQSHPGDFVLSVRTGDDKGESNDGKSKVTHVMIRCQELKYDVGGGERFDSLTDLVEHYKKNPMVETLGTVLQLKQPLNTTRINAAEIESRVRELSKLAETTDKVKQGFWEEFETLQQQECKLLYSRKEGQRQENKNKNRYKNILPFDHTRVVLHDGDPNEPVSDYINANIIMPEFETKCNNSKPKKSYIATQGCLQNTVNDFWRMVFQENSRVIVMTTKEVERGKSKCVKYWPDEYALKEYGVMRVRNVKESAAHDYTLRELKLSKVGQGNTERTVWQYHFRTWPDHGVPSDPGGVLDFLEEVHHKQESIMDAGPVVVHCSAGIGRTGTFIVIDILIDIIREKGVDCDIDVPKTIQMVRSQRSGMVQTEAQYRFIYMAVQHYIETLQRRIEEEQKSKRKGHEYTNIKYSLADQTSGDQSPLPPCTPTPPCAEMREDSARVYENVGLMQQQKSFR
`CC1(CN)CCN(c2cnc3c(N4CCCc5cc(C(N)=O)ccc54)n[nH]c3n2)CC1` [Compound 58, 1-(6-(4-(aminomethyl)-4-methylpiperidin-1-yl)-1H-pyrazolo[3,4-b]pyrazin-3-yl)-1,2,3,4-tetrahydroquinoline-6-carboxamide] came in with an IC50 of under 1000 nM.
The figure for `COc1ccc2c(n1)CCCN2c1n[nH]c2nc(N3CCC4(CC3)CO[C@@H](C)[C@H]4N)cnc12` [Compound 315] is under 1000 nM.
The value for `CC1CN(c2n[nH]c3nc(N4CCC(C)(CN)CC4)cnc23)c2ccccc21` (centres unmarked) [Compound 123] was under 1000 nM; that for `CC1(CN)CCN(c2cnc3c(N4CCC(C#N)c5ccccc54)n[nH]c3n2)CC1` (centres unmarked) [Compound 117] was under 1000 nM; that for `COC(=O)n1nc(N2CCCc3ncccc32)c2ncc(N3CCC4(CC3)CO[C@@H](C)[C@H]4N)nc21` [Compound 253, methyl 6-[(3S,4S)-4-amino-3-methyl-2-oxa-8-azaspiro[4.5]decan-8-yl]-3-(1,2,3,4-tetrahydro-1,5-naphthyridin-1-yl)-1H-pyrazolo[3,4-b]pyrazine-1-carboxylate hydrochloride] was under 1000 nM.
The value for `Cc1ccc2c(n1)CCCN2c1n[nH]c2nc(N3CCC4(CC3)CO[C@@H](C)[C@H]4N)cnc12` [Compound 292] was under 1000 nM; that for `C[S+]([O-])c1cccc2c1CCCN2c1n[nH]c2nc(N3CCC(C)(CN)CC3)cnc12` (centres unmarked) [Compound 192] was under 1000 nM; that for `CCc1cccc2c1CCCN2c1n[nH]c2nc(N3CCC(C)(CN)CC3)cnc12` [Compound 85] was under 1000 nM.
Compound `CC1(N)CCN(c2cnc3c(N4CCCc5c(-c6nc(C(=O)O)cs6)cccc54)n[nH]c3n2)CC1` [Compound 71, 2-(1-(6-(4-amino-4-methylpiperidin-1-yl)-1H-pyrazolo[3,4-b]pyrazin-3-yl)-1,2,3,4-tetrahydroquinolin-5-yl)thiazole-4-carboxylic acid] yielded an IC50 of under 1000 nM.
The value for `NC(=O)C1CCCN(c2cnc3c(N4CCCc5ncccc54)n[nH]c3n2)C1` (centres unmarked) [Compound 149] was at least 10000 nM; that for `CC1(N)CCN(c2cnc3c(Sc4cccnc4C(F)(F)F)n[nH]c3n2)CC1` [Compound 8, 4-methyl-1-(3-((2-(trifluoromethyl)pyridin-3-yl)thio)-1H-pyrazolo[3,4-b]pyrazin-6-yl)piperidin-4-amine] was under 1000 nM.
The figure for `COC(=O)Cc1cccc2c1CCCN2c1n[nH]c2nc(N3CCC4(CC3)CO[C@@H](C)[C@H]4N)cnc12` [Compound 461] is under 1000 nM.
The value for `C[C@@H]1OCC2(CCN(c3cnc4c(N5CC[C@H](C)c6c(-c7cnn(C)c7)cccc65)n[nH]c4n3)CC2)[C@@H]1N` [Compound 278] was under 1000 nM; that for `CCn1cc(-c2ccc3c(n2)CCCN3c2n[nH]c3nc(N4CCC5(CC4)CO[C@@H](C)[C@H]5N)cnc23)cn1` [Compound 334, (3S,4S)-8-{3-[6-(1-ethyl-1H-pyrazol-4-yl)-1,2,3,4-tetrahydro-1,5-naphthyridin-1-yl]-1H-pyrazolo[3,4-b]pyrazin-6-yl}-3-methyl-2-oxa-8-azaspiro[4.5]decan-4-amine] was under 1000 nM; that for `CN(c1ccnc(N)c1)c1n[nH]c2nc(N3CCC(C)(N)CC3)cnc12` [Compound 491, N4-[6-(4-amino-4-methyl-1-piperidyl)-1H-pyrazolo[3,4-b]pyrazin-3-yl]-N4-methyl-pyridine-2,4-diamine] was 1000 to 10000 nM.
Take `COC(=O)N1CCN(c2n[nH]c3nc(N4CCC5(CC4)CO[C@@H](C)[C@H]5N)cnc23)c2ccccc21` [Compound 391]: the IC50 is under 1000 nM.
The value for `C[C@@H]1OCC2(CCN(c3cnc4c(N5CCCc6c5cccc6N(S(C)(=O)=O)S(C)(=O)=O)n[nH]c4n3)CC2)[C@@H]1N` [Compound 344, N-(1-{6-[(3S,4S)-4-amino-3-methyl-2-oxa-8-azaspiro[4.5]decan-8-yl]-1H-pyrazolo[3,4-b]pyrazin-3-yl}-1,2,3,4-tetrahydroquinolin-5-yl)-N-methanesulfonylmethanesulfonamide] was under 1000 nM; that for `N[C@H]1CCC12CCN(c1cnc3c(N4CCCc5ncccc54)n[nH]c3n1)CC2` [Compound 340, (1S)-7-[3-(1,2,3,4-tetrahydro-1,5-naphthyridin-1-yl)-1H-pyrazolo[3,4-b]pyrazin-6-yl]-7-azaspiro[3.5]nonan-1-amine] was under 1000 nM.
The value for `CC1(CN)CCN(c2cnc3c(N4CCCc5c(-c6cccc(Oc7ccccc7)c6)cccc54)n[nH]c3n2)CC1` [Compound 75] was under 1000 nM.
The figure for `C[C@@H]1OCC2(CCN(c3cnc4c(N5CCN(CC(=O)O)c6cc(C#N)ccc65)n[nH]c4n3)CC2)[C@@H]1N` [Compound 423, 2-(4-{6-[(3S,4S)-4-amino-3-methyl-2-oxa-8-azaspiro[4.5]decan-8-yl]-1H-pyrazolo[3,4-b]pyrazin-3-yl}-7-cyano-1,2,3,4-tetrahydroquinoxalin-1-yl)acetic acid] is under 1000 nM.
In turn, `C[C@@H]1OCC2(CCN(c3cnc4c(N5CCCc6ncsc65)n[nH]c4n3)CC2)[C@@H]1N` [Compound 531] registered an IC50 of under 1000 nM.
The value for `C[C@@H]1OCC2(CCN(c3cnc4c(N5CCc6c(C#N)cccc6C5)n[nH]c4n3)CC2)[C@@H]1N` [Compound 274] was under 1000 nM; that for `C[C@@H]1OCC2(CCN(c3cnc4c(N5CCCc6c5ccnc6C(F)F)n[nH]c4n3)CC2)[C@@H]1N` [Compound 236] was under 1000 nM; that for `C[C@@H]1OCC2(CCN(c3cnc4c(N5CCCc6c5ccnc6C#N)n[nH]c4n3)CC2)[C@@H]1N` [Compound 228] was under 1000 nM.
The value for `CC1(CN)CCN(c2cnc3c(N4CCC(CO)c5ccccc54)n[nH]c3n2)CC1` (centres unmarked) [Compound 99, (1-(6-(4-(Aminomethyl)-4-methylpiperidin-1-yl)-1H-pyrazolo[3,4-b]pyrazin-3-yl)-1,2,3,4-tetrahydroquinolin-4-yl)methanol] was under 1000 nM; that for `CC1(N)CCN(c2cnc3c(N4CCCn5nccc54)n[nH]c3n2)CC1` [Compound 22] was under 1000 nM.
On to `C[C@@H]1OCC2(CCN(c3cnc4c(N5CCCc6c([C@@H]7CCOC7)cccc65)n[nH]c4n3)CC2)[C@@H]1N` [Compound 401], for which the IC50 was under 1000 nM.
The value for `CC1(CN)CCN(c2cnc3c(N4CCc5ncccc54)n[nH]c3n2)CC1` [Compound 124] was under 1000 nM; that for `C[C@@H]1OCC2(CCN(c3cnc4c(N5CCCc6nc(N7CC[C@H](O)C7)ccc65)n[nH]c4n3)CC2)[C@@H]1N` [Compound 261, (3S)-1-(5-{6-[(3S,4S)-4-amino-3-methyl-2-oxa-8-azaspiro[4.5]decan-8-yl]-1H-pyrazolo[3,4-b]pyrazin-3-yl}-5,6,7,8-tetrahydro-1,5-naphthyridin-2-yl)pyrrolidin-3-ol] was under 1000 nM.
In turn, `C[C@@H]1OCC2(CCN(c3cnc4c(N5CCN([C@H]6CCOC6)c6cc(C#N)ccc65)n[nH]c4n3)CC2)[C@@H]1N` [Compound 402] had an IC50 of under 1000 nM.
The figure for `C[C@@H]1OCC2(CCN(c3cnc4c(N5CCCc6c(CC#N)cccc65)n[nH]c4n3)CC2)[C@@H]1N` [Compound 441] is under 1000 nM; for `CC1(N)CCN(c2cnc3c(Sc4ccncc4)n[nH]c3n2)CC1` [Compound 486, 4-methyl-1-(3-(pyridin-4-ylthio)-1H-pyrazolo[3,4-b]pyrazin-6-yl)piperidin-4-amine] it is under 1000 nM.

A word on the IC50: it is the midpoint of a concentration-inhibition curve.
